Counter-ions that a name gives are not always drawn. Like-named read-outs stand apart in the source and are kept apart here. Ends that are not written are not given here.
Assays:
[1] = tested on: NCI-H292 lung cancer cells; test: FDA drug screening, complete media vs cholesterol-free media without statin (TABLE 1); assay type: cell-based, human
[2] = tested on: NCI-H292 lung cancer cells; test: FDA drug screening, complete media vs cholesterol-free media with simvastatin (TABLE 2); assay type: cell-based, human
[3] = Complete minus Cholesterol-free, […]
[4] = NCI-H292 cells, cholesterol-free media without statin, FDA drug library screen
[5] = NCI-H292 cells, complete media, FDA drug library screen
[6] = NCI-H292 cells, FDA library drug in cholesterol-free media with simvastatin 0.04 μM
[7] = NCI-H292 cells, FDA library drug in complete media
[8] = complete media vs cholesterol-free media + simvastatin (0.04 μM), […]
[9] = NCI-H292 cells, cholesterol-free media without statin
[10] = complete vs cholesterol-free media, greater than 0 enhanced anti-cancer activity, about 0 neutral, below 0 antagonists
[11] = NCI-H292 cells, FDA drug library screen, cholesterol-free media with simvastatin 0.04 μM
[12] = NCI-H292 cells, FDA drug library screen, complete media
[13] = complete media vs cholesterol-free media + simvastatin (0.04 μM), >0 enhanced anti-cancer activity, about 0 neutral, <0 antagonist
[14] = Complete minus Cholesterol-free, >0 enhanced anti-cancer activity, about 0 neutral, <0 antagonist
[15] = NCI-H292 cells, cholesterol-free media with simvastatin 0.04 μM, FDA drug library screen (TABLE 2)
[16] = NCI-H292 cells, complete media, FDA drug library screen (TABLE 2)
[17] = complete media minus cholesterol-free media + simvastatin (0.04 μM), >0 enhanced anti-cancer activity, about 0 neutral, <0 antagonist
[18] = complete media minus cholesterol-free media + simvastatin, >0 enhanced anti-cancer activity, about 0 neutral, <0 antagonist
[19] = complete media minus cholesterol-free media + simvastatin, […]
[20] = complete vs cholesterol-free media, >0 enhanced anti-cancer activity, about 0 neutral, <0 antagonist
[21] = Complete minus Cholesterol-free, greater than 0 enhanced anti-cancer activity, about 0 neutral, below 0 antagonist
[22] = NCI-H292 cells, FDA drug library screen, cholesterol-free media without statin
[23] = Complete minus Cholesterol-free, greater than 0 enhanced anti-cancer activity, about 0 neutral, below 0 antagonists
[24] = NCI-H292 cells in cholesterol-free media without statin
[25] = NCI-H292 cells in complete media
[26] = NCI-H292 cells, drug in cholesterol-free media with simvastatin 0.04 μM
[27] = NCI-H292 cells, drug in complete media
[28] = NCI-H292 cells, cholesterol-free media with simvastatin 0.04 μM, cell growth value in FDA drug screen
[29] = NCI-H292 cells, complete media, cell growth value in FDA drug screen
[30] = complete vs cholesterol-free media, […]

Molecule: Hyaluronidase
- Difference [1, 3]: −0.05
- Cholesterol-free [1, 4]: 0.9036
- Complete [1, 5]: 0.8508
- Cholesterol-free media + simvastatin (0.04 μM) [2, 6]: 1.288
- Complete Media [2, 7]: 1.022
- Difference [2, 8]: −0.27

Molecule: CC(=O)OCC(=O)NCCCOc1cccc(CN2CCCCC2)c1.Cl [Roxatidine (Acetate Hydrochloride)]
- Cholesterol-free [1, 9]: 1.511
- Complete ([1]; NCI-H292 cells, complete media): 1.141
- Difference [1, 10]: −0.37
- Cholesterol-free media + simvastatin (0.04 μM) [2, 11]: 1.117
- Complete Media [2, 12]: 1.004
- Difference [2, 13]: −0.11

Molecule: CS(=O)(=O)c1ccc(C(=O)Nc2ccc(Cl)c(-c3ccccn3)c2)c(Cl)c1 [Vismodegib]
- Difference [1, 14]: −0.05
- Cholesterol-free [1, 4]: 1.219
- Cholesterol-free media + simvastatin (0.04 μM) [2, 15]: 1.089
- Complete Media [2, 16]: 1.052
- Difference [2, 17]: −0.04

Molecule: C[C@H]1C[C@@H]2[C@H]([C@@H](O)C[C@@]3(C)[C@H]2CC[C@]3(O)C(=O)CO)[C@@]2(C)C=CC(=O)C=C12 [Methylprednisolone]
- Difference [1, 14]: −0.22
- Cholesterol-free [1, 9]: 0.8356
- Complete ([1]; NCI-H292 cells, complete media): 0.6178
- Cholesterol-free media + simvastatin (0.04 μM) [2, 11]: 1.016
- Complete Media [2, 12]: 1.212
- Difference [2, 18]: 0.20

Molecule: CCN1CCN(c2cc(-c3ccc(F)cc3)c3c(n2)CCCCCC3)CC1 [Blonanserin]
- Difference [1, 14]: −0.06
- Cholesterol-free [1, 4]: 1.144
- Complete [1, 5]: 1.088
- Complete Media [2, 16]: 0.8939
- Difference [2, 17]: −0.05

Molecule: CC(C)c1nc(CN(C)C(=O)N[C@H](C(=O)N[C@@H](Cc2ccccc2)C[C@H](O)[C@H](Cc2ccccc2)NC(=O)OCc2cncs2)C(C)C)cs1 [Ritonavir]
- Difference [1, 14]: −0.25
- Cholesterol-free [1, 9]: 1.533
- Complete ([1]; NCI-H292 cells, complete media): 1.287
- Cholesterol-free media + simvastatin (0.04 μM) [2, 6]: 1.133
- Complete Media [2, 7]: 0.8233
- Difference [2, 13]: −0.31

Molecule: CS(=O)(=O)c1cc(F)cc2c3c(n(Cc4ccc(Cl)cc4)c12)[C@@H](CC(=O)O)CC3 [Laropiprant]
- Cholesterol-free [1]: 1.338
- Complete [1]: 1.092
- Difference [1]: −0.25
- Cholesterol-free media + simvastatin (0.04 μM) [2]: 0.8957
- Complete Media [2]: 1.455
- Difference [2]: 0.56

Molecule: CC(C)c1cccc(C(C)C)c1O [Propofol]
- Cholesterol-free [1]: 0.9745
- Complete [1]: 0.7898
- Difference [1]: −0.18
- Cholesterol-free media + simvastatin (0.04 μM) [2]: 1.559
- Complete Media [2]: 1.224
- Difference [2]: −0.33

Molecule: CCCNCC(O)COc1ccccc1C(=O)CCc1ccccc1 (centres unmarked) [Propafenone (hydrochloride)]
- Difference [1, 14]: 0.02
- Cholesterol-free [1, 4]: 1.064
- Complete [1, 5]: 1.086
- Cholesterol-free media + simvastatin (0.04 μM) [2, 15]: 1.11
- Complete Media [2, 16]: 1.1
- Difference [2, 17]: −0.01

Molecule: Angiotensin II human (acetate) (DRVYIHPF; also: acetate salt; UniProt P01019 25-32, looked up)
- Difference [1, 3]: −0.23
- Cholesterol-free [1, 9]: 0.9412
- Complete ([1]; NCI-H292 cells, complete media): 0.7158
- Complete Media [2, 12]: 1.355
- Difference [2, 19]: 0.21

Molecule: CCCCC/C=C\C/C=C\CCCCCCCC(=O)O [Linoleic acid]
- Cholesterol-free [1, 4]: 1.134
- Complete [1, 5]: 1.557
- Difference [1, 20]: 0.42
- Cholesterol-free media + simvastatin (0.04 μM) [2, 11]: 1.399
- Complete Media [2, 12]: 1.847
- Difference [2, 18]: 0.45

Molecule: COc1cnc(NS(=O)(=O)c2ccc(N)cc2)nc1 [Sulfameter]
- Difference [1, 21]: −0.13
- Cholesterol-free [1, 22]: 0.9159
- Complete [1, 12]: 0.7824
- Cholesterol-free media + simvastatin (0.04 μM) [2, 15]: 0.9816
- Complete Media [2, 16]: 0.9471
- Difference [2, 17]: −0.03

Molecule: Spiramycin
- Difference [1, 23]: −1.20
- Cholesterol-free [1, 24]: 2.038
- Complete [1, 25]: 0.8421
- Cholesterol-free media + simvastatin (0.04 μM) [2, 26]: 1.277
- Difference [2, 13]: −0.16

Molecule: O=c1c(-c2ccc(O)cc2)coc2cc(O[C@@H]3O[C@H](CO)[C@@H](O)[C@H](O)[C@H]3O)ccc12 [Daidzin]
- Difference [1, 3]: −0.25
- Cholesterol-free [1, 9]: 1.084
- Complete ([1]; NCI-H292 cells, complete media): 0.8381
- Cholesterol-free media + simvastatin (0.04 μM) [2, 26]: 1.011
- Complete Media [2, 27]: 0.8061
- Difference [2, 8]: −0.20

Molecule: COCCOC(=O)C1=C(C)NC(C)=C(C(=O)OC(C)C)C1c1cccc([N+](=O)[O-])c1 (centres unmarked) [Nimodipine]
- Cholesterol-free [1, 9]: 1.269
- Complete ([1]; NCI-H292 cells, complete media): 0.8907
- Difference [1, 10]: −0.38
- Cholesterol-free media + simvastatin (0.04 μM) [2, 15]: 1.215
- Complete Media [2, 16]: 1.187
- Difference [2, 17]: −0.03

Molecule: O=C(Cn1cnnn1)N[C@@H]1C(=O)N2C(C(=O)O)=C(CSc3nncs3)CS[C@H]12 [Ceftezole (sodium)]
- Difference [1, 21]: −0.11
- Cholesterol-free [1, 22]: 1.089
- Complete [1, 12]: 0.9806
- Cholesterol-free media + simvastatin (0.04 μM) [2, 28]: 1.052
- Complete Media [2, 29]: 1.1
- Difference [2, 18]: 0.05

Molecule: Cc1ccc(Nc2nccc(N(C)c3ccc4c(C)n(C)nc4c3)n2)cc1S(N)(=O)=O [Pazopanib]
- Difference [1, 14]: 0.02
- Cholesterol-free [1, 4]: 1.084
- Complete [1, 5]: 1.105
- Cholesterol-free media + simvastatin (0.04 μM) [2, 11]: 1.156
- Complete Media [2, 12]: 1.457
- Difference [2, 18]: 0.30

Molecule: CC1=C(C(=O)O)N2C(=O)[C@@H](NC(=O)[C@H](N)c3ccccc3)[C@H]2SC1 [Cephalexin]
- Cholesterol-free [1, 9]: 1.173
- Complete ([1]; NCI-H292 cells, complete media): 0.8408
- Difference [1, 10]: −0.33
- Cholesterol-free media + simvastatin (0.04 μM) [2, 6]: 1.341
- Complete Media [2, 7]: 0.9798
- Difference [2, 13]: −0.36

Molecule: OCCN(CCO)c1nc(N2CCCCC2)c2nc(N(CCO)CCO)nc(N3CCCCC3)c2n1 [Dipyridamole]
- Difference [1, 23]: −0.51
- Cholesterol-free [1, 24]: 1.48
- Complete [1, 25]: 0.9729
- Cholesterol-free media + simvastatin (0.04 μM) [2, 28]: 0.9652
- Complete Media [2, 29]: 1.095
- Difference [2, 18]: 0.13

Molecule: O=C(O)CC(O)(CC(=O)O)C(=O)O
- Difference [1, 14]: −0.20
- Cholesterol-free [1, 9]: 1.776
- Complete ([1]; NCI-H292 cells, complete media): 1.574
- Cholesterol-free media + simvastatin (0.04 μM) [2, 28]: 0.864
- Complete Media [2, 29]: 0.9089
- Difference [2, 18]: 0.04

Molecule: CCOC(=O)CCC(=O)O[C@H]1[C@H](O[C@@H]2[C@@H](C)[C@H](O[C@H]3C[C@@](C)(OC)[C@@H](O)[C@H](C)O3)[C@@H](C)C(=O)O[C@H](CC)[C@@](C)(O)[C@H](O)[C@@H](C)C(=O)[C@H](C)C[C@@]2(C)O)O[C@H](C)C[C@@H]1N(C)C [Erythromycin Ethylsuccinate]
- Cholesterol-free [1, 9]: 1.248
- Complete ([1]; NCI-H292 cells, complete media): 0.8907
- Difference [1, 30]: −0.36
- Cholesterol-free media + simvastatin (0.04 μM) [2, 11]: 1.069
- Complete Media [2, 12]: 0.9797
- Difference [2, 8]: −0.09

Molecule: C=CC[C@]1(O)CC[C@H]2[C@@H]3CCC4=CCCC[C@@H]4[C@H]3CC[C@@]21C [Allylestrenol]
- Difference [1, 3]: −0.56
- Cholesterol-free [1, 24]: 1.739
- Complete [1, 25]: 1.181
- Cholesterol-free media + simvastatin (0.04 μM) ([2]; NCI-H292 cells, cholesterol-free media with simvastatin 0.04 μM, […]): 1.288
- Complete Media ([2]; NCI-H292 cells, complete media, […]): 1.384
- Difference [2, 19]: 0.10

Molecule: OC[C@H]1OC(O)[C@H](O)[C@@H](O)[C@@H]1O (stereo partly drawn) [D-Glucose]
- Difference [1, 14]: −0.06
- Cholesterol-free [1, 4]: 0.3615
- Complete [1, 5]: 0.3017
- Cholesterol-free media + simvastatin (0.04 μM) [2, 26]: 0.822
- Complete Media [2, 27]: 0.5991
- Difference [2, 13]: −0.22

Molecule: CN1C(=O)CC(c2ccccc2)C1=O (centres unmarked) [Phensuximide]
- Difference [1, 14]: −0.30
- Cholesterol-free [1, 9]: 1.128
- Complete ([1]; NCI-H292 cells, complete media): 0.8334
- Cholesterol-free media + simvastatin (0.04 μM) [2, 26]: 1.556
- Complete Media [2, 27]: 1.333
- Difference [2, 13]: −0.22

Molecule: O=[N+]([O-])O[C@@H]1CO[C@H]2[C@@H]1OC[C@@H]2O [Isosorbide mononitrate]
- Cholesterol-free [1, 9]: 1.459
- Complete ([1]; NCI-H292 cells, complete media): 1.127
- Difference [1, 30]: −0.33
- Cholesterol-free media + simvastatin (0.04 μM) [2, 11]: 0.8339
- Complete Media [2, 12]: 1.021
- Difference [2, 19]: 0.19

Molecule: C[C@]12CC[C@H](O)CC1=CC[C@@H]1[C@@H]2CC[C@]2(C)C(c3cccnc3)=CC[C@@H]12 [Abiraterone]
- Cholesterol-free [1, 4]: 1.119
- Complete [1, 5]: 1.371
- Difference [1, 20]: 0.25
- Cholesterol-free media + simvastatin (0.04 μM) [2, 6]: 1.907
- Complete Media [2, 7]: 1.473
- Difference [2, 13]: −0.43

Molecule: CCC1(c2ccccc2)NC(=O)N(C)C1=O (centres unmarked) [Mephenytoin]
- Difference [1, 23]: −0.62
- Cholesterol-free [1, 24]: 1.604
- Complete [1, 25]: 0.9878
- Cholesterol-free media + simvastatin (0.04 μM) [2, 6]: 1.274
- Complete Media [2, 7]: 1.003
- Difference [2, 13]: −0.27

Molecule: C[N+](C)(C)CCOP(=O)([O-])OC[C@H](O)CO [sn-Glycero-3-phosphocholine]
- Difference [1, 21]: −0.10
- Cholesterol-free [1, 22]: 0.9108
- Complete [1, 12]: 0.8124
- Cholesterol-free media + simvastatin (0.04 μM) [2, 6]: 0.9593
- Complete Media [2, 7]: 0.5999
- Difference [2, 13]: −0.36

Source: patent US20250144067A1, “PERSONALIZED STARVATION THERAPY FOR CANCER” (Faeth Therapeutics, Inc., priority 2021, published 2025)
